From patent publication US20130165489A1, “Small Molecule Modulators of HIV-1 Capsid Stability and Methods Thereof” (The Trustees of the University of Pennsylvania, priority 2010, published 2013)
“Also recorded” adds a separate entry of the source.

Key:
[1] = tested on: HIV-1 92BR030 (subtype B clinical isolate); assay: Anti-HIV efficacy in human PBMCs, isolate 92BR030; assay type: cell-based
Description: HIV human peripheral blood mononuclear cell (PBMC) assays were performed as described previously (Lanier et al., 2010, Antimicrob. Agents Chemother. 54:2901-09; Ptak et al., 2008, Antimicrob. Agents Chemother. 52:1302-17). Briefly, fresh PBMCs, seronegative for HIV and hepatitis B virus (HBV), were isolated from blood samples of the screened donors (Biological Specialty Corporation, Colmar, Pa.) by using lymphocyte separation medium (LSM; density, 1.078±0.002 g/ml; Cellgro; Mediatech, Inc.) by following the manufacturer's instructions. Cells were stimulated by incubation in 4 μg/mL phytohemagglutinin (PHA; Sigma) for 48 to 72 h. Mitogenic stimulation was maintained by the addition of 20 U/mL recombinant human interleukin-2 (rhIL-2; R&D Systems, Inc.) to the culture medium. PHA-stimulated PBMCs from at least two donors were pooled, diluted in fresh medium, and added to 96-well plates at 5×10^4 cells/well. Cells were infected (final multiplicity of infection [MOI] of ≅0.1) in the presence of 9 different concentrations of test compounds (triplicate wells/concentration) and incubated for 7 days. To determine the level of virus inhibition, cell-free supernatant samples were collected for analysis of reverse transcriptase activity (Buckheit Jr., et al., 1991, AIDS Res. Hum. Retroviruses 7:295-302). Following removal of supernatant samples, compound cytotoxicity was measured by the addition of 3-(4,5-dimethylthiazol-2-yl)-5-(3-carboxymethoxyphenyl)-2-(4-sulfophenyl)-2H-tetrazolium (MTS; CellTiter 96 reagent; Promega) by following the manufacturer's instructions.
79:6089-6101; Jagodzinski et al., 2000, J. Clin. Microbiol. 38:1247-49; Michael et al., 1999, J. Clin. Microbiol. 37:2557-63 and Vahey et al., 1999, J. Clin. Microbiol. 37:2533-37); HIV-1 Group M isolate 931N101 (Subtype C, CCR5-tropic) from Dr. Robert Bollinger and the UNAIDS Network for HIV Isolation and Characterization (Gao et al., 1994, AIDS Res. Hum. Retroviruses 10:1359-68); HIV-1 Group M isolate CMUO8 (Subtype E, CXCR4-tropic) from Dr. Kenrad Nelson and the UNAIDS Network for HIV Isolation and Characterization (Gao et al., 1994, AIDS Res. Hum. Retroviruses 10:1359-68); HIV-1 Group M isolate G3 (Subtype G, CCR5-tropic) from Alash'le Abimiku (Abimiku et al., 1994, Aids Res. Hum. Retrovir. 10:1581-83); HIV-1 Group 0 isolate BCF02 (CCR5-tropic) from Sentob Saragosti, Françoise Brun-Vézinet, and François Simon (Loussertajaka et al., 1995, J. Virol. 69:5640-49); and SIV isolate Mac251 from Dr. Ronald Desrosiers (Daniel et al., 1985, Science 228:1201-04).

[2] = tested on: HIV-1 92UG031 (subtype A clinical isolate); assay: Anti-HIV efficacy in human PBMCs, isolate 92UG031; assay type: cell-based
Description: (§1) HIV human peripheral blood mononuclear cell (PBMC) assays were performed as described previously (Lanier et al., 2010, Antimicrob. Agents Chemother. 54:2901-09; Ptak et al., 2008, Antimicrob. Agents Chemother. 52:1302-17). Briefly, fresh PBMCs, seronegative for HIV and hepatitis B virus (HBV), were isolated from blood samples of the screened donors (Biological Specialty Corporation, Colmar, Pa.) by using lymphocyte separation medium (LSM; density, 1.078±0.002 g/ml; Cellgro; Mediatech, Inc.) by following the manufacturer's instructions. Cells were stimulated by incubation in 4 μg/mL phytohemagglutinin (PHA; Sigma) for 48 to 72 h. Mitogenic stimulation was maintained by the addition of 20 U/mL recombinant human interleukin-2 (rhIL-2; R&D Systems, Inc.) to the culture medium. PHA-stimulated PBMCs from at least two donors were pooled, diluted in fresh medium, and added to 96-well plates at 5×10^4 cells/well. Cells were infected (final multiplicity of infection [MOI] of ≅0.1) in the presence of 9 different concentrations of test compounds (triplicate wells/concentration) and incubated for 7 days. […] Following removal of supernatant samples, compound cytotoxicity was measured by the addition of 3-(4,5-dimethylthiazol-2-yl)-5-(3-carboxymethoxyphenyl)-2-(4-sulfophenyl)-2H-tetrazolium (MTS; CellTiter 96 reagent; Promega) by following the manufacturer's instructions. […]

[3] = tested on: HIV-1 89BZ167 (subtype B clinical isolate); assay: Anti-HIV efficacy in human PBMCs, isolate 89BZ167; assay type: cell-based
Description: as §1

[4] = tested on: HIV-1 92UG024 (subtype D clinical isolate); assay: Anti-HIV efficacy in human PBMCs, isolate 92UG024; assay type: cell-based
Description: as §1

[5] = tested on: HIV-1 CMU08 (subtype E clinical isolate); assay: Anti-HIV efficacy in human PBMCs, isolate CMU08; assay type: cell-based
Description: as §1

[6] = tested on: HIV-1 BCF02 (group O clinical isolate); assay: Anti-HIV efficacy in human PBMCs, isolate BCF02; assay type: cell-based
Description: as §1

[7] = in vitro; assay type: cell-based; conditions: human
Description: HIV human peripheral blood mononuclear cell (PBMC) assays were performed as described previously (Lanier et al., 2010, Antimicrob. Agents Chemother. 54:2901-09; Ptak et al., 2008, Antimicrob. Agents Chemother. 52:1302-17). Briefly, fresh PBMCs, seronegative for HIV and hepatitis B virus (HBV), were isolated from blood samples of the screened donors (Biological Specialty Corporation, Colmar, Pa.) by using lymphocyte separation medium (LSM; density, 1.078±0.002 g/ml; Cellgro; Mediatech, Inc.) by following the manufacturer's instructions. Cells were stimulated by incubation in 4 μg/mL phytohemagglutinin (PHA; Sigma) for 48 to 72 h. Mitogenic stimulation was maintained by the addition of 20 U/mL recombinant human interleukin-2 (rhIL-2; R&D Systems, Inc.) to the culture medium. PHA-stimulated PBMCs from at least two donors were pooled, diluted in fresh medium, and added to 96-well plates at 5×10^4 cells/well. Cells were infected (final multiplicity of infection [MOI] of ≅0.1) in the presence of 9 different concentrations of test compounds (triplicate wells/concentration) and incubated for 7 days. […] Following removal of supernatant samples, compound cytotoxicity was measured by the addition of 3-(4,5-dimethylthiazol-2-yl)-5-(3-carboxymethoxyphenyl)-2-(4-sulfophenyl)-2H-tetrazolium (MTS; CellTiter 96 reagent; Promega) by following the manufacturer's instructions.

[8] = tested on: mutant HIV-1 CA proteins; assay: Binding site analysis via SPR, mutant CA proteins; conditions: alanine mutants of residues 137 and R173, 27.5 μM
Description: Wild-type and mutant HIV-1 CA proteins were attached to the surface by standard amine chemistry as described above. Compound CMPD-E was injected over these surfaces at a concentration of 27.5 μM at a flow rate of 50 μL min^−1, for a 2-min association phase, followed by a 5-min dissociation phase, and the response at equilibrium recorded. For comparison, and to take into account minor differences in the ligand density of the mutant surfaces, responses were normalized to the theoretical Rmax, assuming a 2:1 interaction.
Data analysis was performed using BIAEvaluation 4.0 software. The responses of a buffer injection and responses from the reference flow cell were subtracted to account for nonspecific binding. In order to obtain the equilibrium dissociation constants (KD), experimental data were fitted globally to the heterogeneous ligand model. The average parameters generated from a minimum of 4 data sets were used to define the equilibrium dissociation constants (KD1 and KD2). In the mutant CA protein studies, the average maximum response was generated from a minimum of 6 data sets and was used to define the average maximum response for compound CMPD-E binding to wild-type and mutant HIV-1 CA proteins.

[9] = tested on: DENV (serotypes 1-4); assay: CPE assay, Dengue serotypes 1-4; assay type: cell-based, Dengue virus
[10] = tested on: YFV; assay: microbe, parasite or virus in culture; assay type: cell-based, yellow fever virus
[11] = tested on: JEV; assay: CPE assay, JEV; assay type: cell-based, Japanese encephalitis virus
[12] = tested on: H1N1; assay: CPE assay, influenza H1N1; assay type: cell-based
[13] = tested on: Vaccinia; assay: microbe, parasite or virus in culture; assay type: cell-based
[14] = tested on: Chikungunya; assay: CPE assay, Chikungunya; assay type: cell-based
[15] = Human immunodeficiency virus 1, PBMC

O=C(O)c1ccc(-c2nc(-c3ccccc3)c(-c3ccccc3)[nH]2)cc1 [CMPD-E, 4-(4,5-diphenyl-1H-imidazol-2-yl)benzoic acid]
Antiviral index (TC50/IC50) ([1]; 92BR030, PBMC): >1.46
IC50 [1, 15]: 68.7 µM
inhibition of HIV-1 92BR030 replication in PBMCs ([1]; primary PBMCs): could inhibit
IC50 [2, 15]: 93.6 µM
Antiviral index (TC50/IC50) ([2]; PBMC): >1.07
IC50 [3, 15]: 92.9 µM
Antiviral index (TC50/IC50) ([3]; PBMC): >1.08
IC50 [4, 15]: 51.8 µM
Antiviral index (TC50/IC50) ([4]; PBMC): >1.93
IC50 [5, 15]: 100 µM
Antiviral index (TC50/IC50) ([5]; PBMC): >1
IC50 [6, 15]: 71.3 µM
Antiviral index (TC50/IC50) ([6]; PBMC): >1.4
CC50 at 7 days [7]: > 100 µM
reduction of binding to mutant CA compared to wild-type CA [8]: > 2 fold
anti-DENV activity [9]: no inhibitory effects; also recorded: retains none of the anti-DENV activity
IC50 ([9]; Dengue virus): > 100 µM
IC50 ([10]; Yellow fever virus): > 100 µM
effect on yellow fever virus replication ([10]; up to 100 μM): no inhibitory effects
effect on Japanese encephalitis virus replication [11]: no inhibitory effects
IC50 ([11]; Japanese encephalitis virus): > 100 µM
IC50 ([12]; Influenza A virus, H1N1, CPE assay): > 100 µM
effect on influenza H1N1 replication ([12]; up to 100 μM): no inhibitory effects
IC50 ([13]; Orthopoxvirus vaccinia): > 100 µM
effect on Vaccinia replication ([13]; up to 100 μM): no inhibitory effects
effect on Chikungunya virus replication [14]: no inhibitory effects
IC50 ([14]; Chikungunya virus): > 100 µM
